Measurements published in publication PMC10692473 (Acta Pharmaceutica Sinica. B, 2023).
In brackets after ≈: the same amount, converted by molar mass.

Experiments:
S. aureus Topo IV = S. aureus Topo IV (Staphylococcus aureus, UniProt P0C1S7); assay: Topo IV inhibitory assay; format: biochemical
S. aureus MSSA15-1 = assay: Antibacterial spectrum; conditions: Staphylococcus aureus, MSSA151
S. aureus VISA5836 = assay: Antibacterial spectrum; conditions: Staphylococcus aureus
[1] = Pharmacokinetics study on beagle dogs; format: in vivo
E. coli (ATCC25922) = assay: Antibacterial assay; conditions: Escherichia coli, ATCC25922, read-out: MIC E. coli (ATCC25922)
MRSA (ATCC43300) = assay: Neutropenic murine thigh MRSA infection model; format: in vivo, ICR mice; conditions: 2.5 mg/kg iv, 24 h
HepG2 cells = assay: Mitochondrial toxicity; conditions: HepG2 cells, 50–800 μmol/L
E. faecalis ATCC51299 = assay: Antibacterial spectrum; conditions: Enterococcus faecalis
S. aureus gyrase = S. aureus gyrase (Staphylococcus aureus, UniProt P0A0K8); assay: Gyrase inhibitory assay; format: biochemical
S. aureus gyrase, sequence (P0A0K8 whole entry): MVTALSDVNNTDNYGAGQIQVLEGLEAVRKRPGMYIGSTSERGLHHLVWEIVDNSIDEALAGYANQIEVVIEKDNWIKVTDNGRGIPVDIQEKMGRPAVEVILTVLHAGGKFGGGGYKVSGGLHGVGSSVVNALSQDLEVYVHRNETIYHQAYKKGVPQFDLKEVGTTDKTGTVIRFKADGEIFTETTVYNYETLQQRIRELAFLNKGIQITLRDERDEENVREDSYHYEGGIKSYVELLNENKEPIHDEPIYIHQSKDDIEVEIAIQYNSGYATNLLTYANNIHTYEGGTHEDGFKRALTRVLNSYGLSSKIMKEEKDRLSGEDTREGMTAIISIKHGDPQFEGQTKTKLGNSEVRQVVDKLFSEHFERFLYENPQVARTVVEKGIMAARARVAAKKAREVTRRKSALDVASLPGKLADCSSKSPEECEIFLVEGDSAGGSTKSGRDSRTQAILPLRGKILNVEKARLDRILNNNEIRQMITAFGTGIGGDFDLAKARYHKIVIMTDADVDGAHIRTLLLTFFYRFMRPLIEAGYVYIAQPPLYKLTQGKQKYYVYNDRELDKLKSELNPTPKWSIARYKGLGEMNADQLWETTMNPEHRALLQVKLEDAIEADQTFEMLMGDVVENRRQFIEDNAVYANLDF
S. aureus gyrase, sequence (P20831 whole entry partner): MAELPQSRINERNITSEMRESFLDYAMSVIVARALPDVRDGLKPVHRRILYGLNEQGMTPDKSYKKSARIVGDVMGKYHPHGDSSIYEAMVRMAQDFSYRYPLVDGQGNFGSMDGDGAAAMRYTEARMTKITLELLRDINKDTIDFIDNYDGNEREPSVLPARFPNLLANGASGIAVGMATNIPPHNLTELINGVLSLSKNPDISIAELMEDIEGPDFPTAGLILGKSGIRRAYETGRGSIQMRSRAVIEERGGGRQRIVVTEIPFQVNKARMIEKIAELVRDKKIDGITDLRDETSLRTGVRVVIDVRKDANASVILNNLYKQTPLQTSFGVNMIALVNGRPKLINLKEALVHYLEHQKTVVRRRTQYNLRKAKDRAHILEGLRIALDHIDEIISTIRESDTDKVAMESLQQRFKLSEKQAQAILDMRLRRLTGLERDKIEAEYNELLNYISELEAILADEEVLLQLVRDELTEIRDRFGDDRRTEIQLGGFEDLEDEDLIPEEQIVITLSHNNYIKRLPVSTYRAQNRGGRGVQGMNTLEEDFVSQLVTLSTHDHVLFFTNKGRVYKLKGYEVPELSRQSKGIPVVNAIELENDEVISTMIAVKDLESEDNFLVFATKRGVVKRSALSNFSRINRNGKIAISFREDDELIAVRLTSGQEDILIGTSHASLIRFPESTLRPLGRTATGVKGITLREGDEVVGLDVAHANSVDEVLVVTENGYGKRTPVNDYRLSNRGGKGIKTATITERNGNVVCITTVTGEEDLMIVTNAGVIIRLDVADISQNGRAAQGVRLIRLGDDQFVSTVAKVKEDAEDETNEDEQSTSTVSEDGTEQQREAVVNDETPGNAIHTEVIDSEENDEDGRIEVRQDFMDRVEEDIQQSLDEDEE

S. epidermidis MRSE15-1 = assay: Antibacterial spectrum; conditions: Staphylococcus epidermidis, MRSE151
E. coli Topo IV = E. coli Topo IV (Escherichia coli, UniProt P20083); assay: Topo IV inhibitory assay; format: biochemical
E. coli Topo IV, sequence (P20083 whole entry): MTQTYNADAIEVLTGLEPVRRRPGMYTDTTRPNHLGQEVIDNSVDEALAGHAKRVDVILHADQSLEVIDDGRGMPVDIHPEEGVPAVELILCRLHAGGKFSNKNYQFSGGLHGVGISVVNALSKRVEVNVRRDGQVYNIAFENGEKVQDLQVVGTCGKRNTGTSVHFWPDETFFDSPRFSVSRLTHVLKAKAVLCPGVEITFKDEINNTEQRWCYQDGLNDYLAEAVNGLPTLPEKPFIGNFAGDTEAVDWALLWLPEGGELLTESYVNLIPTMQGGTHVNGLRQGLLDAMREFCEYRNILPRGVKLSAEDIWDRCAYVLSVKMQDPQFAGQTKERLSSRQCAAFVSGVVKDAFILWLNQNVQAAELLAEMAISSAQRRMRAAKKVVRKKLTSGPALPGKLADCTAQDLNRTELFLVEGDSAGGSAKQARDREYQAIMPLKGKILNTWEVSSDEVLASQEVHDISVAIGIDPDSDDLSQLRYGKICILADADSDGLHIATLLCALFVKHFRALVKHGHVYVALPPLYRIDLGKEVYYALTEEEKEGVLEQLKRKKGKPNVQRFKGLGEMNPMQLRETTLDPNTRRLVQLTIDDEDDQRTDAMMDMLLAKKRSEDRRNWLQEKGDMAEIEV
E. coli Topo IV, sequence (P0AFI2 whole entry partner): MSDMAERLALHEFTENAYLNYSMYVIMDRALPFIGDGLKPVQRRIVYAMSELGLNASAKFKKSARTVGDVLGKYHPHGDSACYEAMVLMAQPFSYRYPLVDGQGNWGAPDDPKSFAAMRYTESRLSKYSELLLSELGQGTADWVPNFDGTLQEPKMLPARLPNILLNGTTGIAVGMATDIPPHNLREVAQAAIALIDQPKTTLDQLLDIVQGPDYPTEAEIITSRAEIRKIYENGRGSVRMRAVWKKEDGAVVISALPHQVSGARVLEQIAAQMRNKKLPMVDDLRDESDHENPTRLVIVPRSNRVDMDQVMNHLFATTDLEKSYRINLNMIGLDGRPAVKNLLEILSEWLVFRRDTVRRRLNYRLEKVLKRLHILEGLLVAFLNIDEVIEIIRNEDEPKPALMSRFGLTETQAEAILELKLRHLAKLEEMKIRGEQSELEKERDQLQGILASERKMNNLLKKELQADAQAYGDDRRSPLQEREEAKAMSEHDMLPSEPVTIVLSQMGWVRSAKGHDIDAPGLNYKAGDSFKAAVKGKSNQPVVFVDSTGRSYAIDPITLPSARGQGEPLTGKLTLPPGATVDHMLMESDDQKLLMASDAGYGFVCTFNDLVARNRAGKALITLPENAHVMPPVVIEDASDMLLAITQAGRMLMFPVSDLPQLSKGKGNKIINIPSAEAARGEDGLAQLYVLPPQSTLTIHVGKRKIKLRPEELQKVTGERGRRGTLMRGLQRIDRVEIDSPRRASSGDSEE

S. aureus (ATCC29213) [2] = assay: Time-killing curves / killing kinetic studies; format: cell-based; conditions: 4, 8, and 16 × MIC
Cytotoxicity assay [3] = conditions: human, LO2 normal hepatocytes
P. aeruginosa ATCC27853 = assay: Antibacterial spectrum; conditions: Pseudomonas aeruginosa
S. aureus (ATCC29213) [4] = assay: Antibacterial assay; conditions: Staphylococcus aureus, ATCC29213, read-out: MIC S. aureus (ATCC29213)
Cytotoxicity assay [5] = conditions: human, HK2 renal tubular epithelial cells
[6] = test system: susceptible and resistant Gram-positive bacteria; assay: Antibacterial spectrum; format: cell-based, S. aureus, S. epidermidis, E. faecalis, E. faecium; conditions: read-out: MIC against susceptible and resistant Gram-positive bacteria
[7] = test system: methicillin-resistant S. aureus (ATCC43300); assay: Mouse model of sepsis induced by MRSA; format: in vivo, ICR mice; conditions: 10 mg/kg ig, MRSA ATCC43300, observed 7 days
S. aureus MRSA15-1 = assay: Antibacterial spectrum; conditions: Staphylococcus aureus, MRSA151
E. faecalis ATCC51575 = assay: Antibacterial spectrum; conditions: Enterococcus faecalis
S. epidermidis MRSE15-2 = assay: Antibacterial spectrum; conditions: Staphylococcus epidermidis, MRSE152
hERG channel = hERG channel (Homo sapiens, UniProt Q12809); assay: Inhibition evaluation on hERG K+ channel; format: cell-based
[8] = test system: methicillin-resistant S. aureus (ATCC43300); assay: Spontaneous drug resistance frequency; format: cell-based; conditions: MRSA ATCC43300, 4 × MIC
[9] = Mouse acute toxicity test; set-up: species or system ICR mice; conditions: both, ICR, in vivo
A. baumannii ATCC19606 = assay: Antibacterial spectrum; conditions: Acinetobacter baumannii
S. aureus VISA5827 = assay: Antibacterial spectrum; conditions: Staphylococcus aureus
S. aureus (ATCC29213) [10] = assay: Spontaneous drug resistance frequency; format: cell-based; conditions: S. aureus ATCC29213, 4 × MIC
S. aureus MRSA15-2 = assay: Antibacterial spectrum; conditions: Staphylococcus aureus, MRSA152
S. aureus GyrB24 = S. aureus GyrB24 (Staphylococcus aureus, UniProt P0A0K8); assay: Surface plasmon resonance; format: binding
S. aureus GyrB24, sequence (P0A0K8 2-220): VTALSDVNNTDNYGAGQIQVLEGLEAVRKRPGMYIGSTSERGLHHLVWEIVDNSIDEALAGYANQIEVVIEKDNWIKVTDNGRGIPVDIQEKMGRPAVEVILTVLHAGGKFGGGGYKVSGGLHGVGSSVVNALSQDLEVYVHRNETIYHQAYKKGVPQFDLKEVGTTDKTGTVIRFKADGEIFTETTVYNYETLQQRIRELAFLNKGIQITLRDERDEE

S. aureus MSSA15-2 = assay: Antibacterial spectrum; conditions: Staphylococcus aureus, MSSA152
E. coli gyrase = E. coli gyrase (Escherichia coli, UniProt P0AES6); assay: Gyrase inhibitory assay; format: biochemical
Cytotoxicity assay [11] = conditions: human, HEK293 embryonic kidney cells
S. aureus ATCC43300 = assay: Antibacterial spectrum; conditions: Staphylococcus aureus
S. epidermidis MSSE15-3 = assay: Antibacterial spectrum; conditions: Staphylococcus epidermidis, MSSE153
E. faecium EFM19-1 = assay: Antibacterial spectrum; conditions: Enterococcus faecium, EFM191
[12] = test system: Salmonella typhimurium TA98 and TA100 strains; assay: Mini-Ames test; format: cell-based
[13] = both, beagle, dog, plasma, iv, 1 mg/kg
[14] = both, beagle, dog, plasma, po, 1 mg/kg

S. aureus Topo IV, sequence (P0C1S7 whole entry): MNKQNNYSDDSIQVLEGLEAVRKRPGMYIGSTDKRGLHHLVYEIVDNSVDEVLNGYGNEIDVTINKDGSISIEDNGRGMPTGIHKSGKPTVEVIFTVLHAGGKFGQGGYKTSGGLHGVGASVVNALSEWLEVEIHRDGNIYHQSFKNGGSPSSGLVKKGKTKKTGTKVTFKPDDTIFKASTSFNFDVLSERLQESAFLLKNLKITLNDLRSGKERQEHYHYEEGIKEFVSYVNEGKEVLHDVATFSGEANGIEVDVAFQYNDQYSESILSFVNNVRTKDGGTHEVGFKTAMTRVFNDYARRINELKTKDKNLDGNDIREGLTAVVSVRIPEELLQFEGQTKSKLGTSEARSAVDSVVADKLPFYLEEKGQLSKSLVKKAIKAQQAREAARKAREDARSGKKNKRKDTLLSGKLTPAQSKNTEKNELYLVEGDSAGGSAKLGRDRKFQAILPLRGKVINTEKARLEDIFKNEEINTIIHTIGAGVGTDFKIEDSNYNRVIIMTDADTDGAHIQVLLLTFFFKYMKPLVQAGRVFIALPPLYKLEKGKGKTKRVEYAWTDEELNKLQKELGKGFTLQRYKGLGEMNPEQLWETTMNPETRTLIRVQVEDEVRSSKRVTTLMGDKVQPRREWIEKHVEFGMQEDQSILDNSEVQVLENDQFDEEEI
S. aureus Topo IV, sequence (P0C1U9 whole entry partner): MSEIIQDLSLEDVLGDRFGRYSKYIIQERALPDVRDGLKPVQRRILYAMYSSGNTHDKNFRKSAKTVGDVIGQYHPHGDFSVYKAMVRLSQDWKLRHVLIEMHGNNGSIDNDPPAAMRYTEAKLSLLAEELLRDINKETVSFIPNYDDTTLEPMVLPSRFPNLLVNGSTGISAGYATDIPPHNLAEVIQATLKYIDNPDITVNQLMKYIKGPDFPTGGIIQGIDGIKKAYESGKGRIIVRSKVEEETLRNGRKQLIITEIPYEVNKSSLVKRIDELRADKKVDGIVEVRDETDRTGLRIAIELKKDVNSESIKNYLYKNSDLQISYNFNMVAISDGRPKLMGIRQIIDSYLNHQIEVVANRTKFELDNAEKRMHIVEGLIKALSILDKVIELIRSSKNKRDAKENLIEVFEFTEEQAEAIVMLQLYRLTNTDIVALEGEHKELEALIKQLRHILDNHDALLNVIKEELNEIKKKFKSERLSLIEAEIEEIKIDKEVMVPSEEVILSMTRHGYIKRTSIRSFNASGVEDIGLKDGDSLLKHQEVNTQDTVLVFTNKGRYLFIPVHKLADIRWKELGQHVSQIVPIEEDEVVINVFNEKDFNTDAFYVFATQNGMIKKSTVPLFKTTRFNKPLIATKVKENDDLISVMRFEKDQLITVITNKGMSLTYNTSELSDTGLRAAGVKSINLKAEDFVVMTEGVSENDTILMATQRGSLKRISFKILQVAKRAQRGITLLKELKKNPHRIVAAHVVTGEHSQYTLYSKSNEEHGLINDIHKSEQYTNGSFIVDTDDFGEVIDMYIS

**Q.** For `CO[C@H]1CN(c2ccc(C(C)(C)O)nn2)CC[C@H]1NC(=O)c1[nH]c(C)c(Cl)c1Cl` [Compound 28, 3,4-Dichloro-N-((3S,4R)-1-(6-(2-hydroxypropan-2-yl)pyridazin-3-yl)-3-methoxypiperidin-4-yl)-5-methyl-1H-pyrrole-2-carboxamide], which IC50 (S. aureus Topo IV) is on record?
**A.** Its IC50 is 1.51 ± 0.46 µM.

**Q.** And the MIC (S. aureus MSSA15-1)?
**A.** Its MIC is 0.015 µg/mL (≈ 0.0339 µM).

**Q.** What about the MIC (S. aureus VISA5836) of the same compound?
**A.** The MIC was 0.015 µg/mL (≈ 0.0339 µM).

**Q.** What about the Cmax [1, 13] of the same compound?
**A.** The Cmax was 5510 ng/mL.

**Q.** What about the MRT inf [1, 13] of the same compound?
**A.** The MRT inf was 12.3 h.

**Q.** And the MRT last [1, 13]?
**A.** Its MRT last is 9.79 h.

**Q.** What about the Tmax [1, 13] of the same compound?
**A.** Its Tmax is 0.873 h.

**Q.** What about the clearance [1, 13] of the same compound?
**A.** The clearance was 0.33 mL/min/kg.

**Q.** And the half-life [1, 13]?
**A.** The half-life was 11.3 h.

**Q.** What about the Cmax [1, 14] of the same compound?
**A.** Its Cmax is 3750 ng/mL.

**Q.** What about the MRT inf [1, 14] of the same compound?
**A.** Its MRT inf is 9.85 h.

**Q.** And the MRT last [1, 14]?
**A.** The MRT last was 9.07 h.

**Q.** What about the Tmax [1, 14] of the same compound?
**A.** The Tmax was 1.75 h.

**Q.** What about the bioavailability [1, 14] of the same compound?
**A.** The bioavailability was 66.8%.

**Q.** And the half-life [1, 14]?
**A.** Its half-life is 8.53 h.

**Q.** And the “AUC0–48” value ([1]; iv (1 mg/kg))?
**A.** Its value is 56,432.101 μg·h.

**Q.** And the “AUC0–∞” value ([1]; iv (1 mg/kg))?
**A.** Its value is 58,890.621 μg·h.

**Q.** What about the “AUC0–48” value ([1]; po (1 mg/kg)) of the same compound?
**A.** Its value is 38,552.203 μg·h.

**Q.** And the “AUC0–∞” value ([1]; po (1 mg/kg))?
**A.** The value was 39,362.651 μg·h.

**Q.** What about the MIC (E. coli (ATCC25922)) of the same compound?
**A.** Its MIC is 1 µg/mL (≈ 2.26 µM).

**Q.** What about the “reduction of colony-forming unit (CFU) in the thigh” value (MRSA (ATCC43300)) of the same compound?
**A.** The value was 3–4 log10.

**Q.** What about the “mitochondrial toxicity” value (HepG2 cells) of the same compound?
**A.** The value was “much less toxicity”.

**Q.** What about the MIC (E. faecalis ATCC51299) of the same compound?
**A.** The MIC was 0.015 µg/mL (≈ 0.0339 µM).

**Q.** What about the IC50 (S. aureus gyrase) of the same compound?
**A.** The IC50 was 0.049 ± 0.005 µM.

**Q.** What about the MIC (S. epidermidis MRSE15-1) of the same compound?
**A.** The MIC was 0.015 µg/mL (≈ 0.0339 µM).

**Q.** And the IC50 (E. coli Topo IV)?
**A.** Its IC50 is greater than 10 µM.

**Q.** What about the “time-kill curve” value (S. aureus (ATCC29213) [2]) of the same compound?
**A.** The value was “time-dependent bactericidal effect”.

**Q.** And the IC50 at 48 h (Cytotoxicity assay [3])?
**A.** The IC50 at 48 h was greater than 10 µM.

**Q.** And the MIC (P. aeruginosa ATCC27853)?
**A.** Its MIC is 4 µg/mL (≈ 9.04 µM).

**Q.** What about the MIC (S. aureus (ATCC29213) [4]) of the same compound?
**A.** The MIC was no more than 0.015 µg/mL.

**Q.** What about the IC50 at 48 h (Cytotoxicity assay [5]) of the same compound?
**A.** The IC50 at 48 h was greater than 10 µM.

**Q.** What about the MIC [6] of the same compound?
**A.** Its MIC is less than 0.03 µg/mL.

**Q.** And the “protective effect / survival in mouse model of sepsis” value [7]?
**A.** Its value is “survived”.

**Q.** What about the MIC (S. aureus MRSA15-1) of the same compound?
**A.** The MIC was 0.015 µg/mL (≈ 0.0339 µM).

**Q.** And the MIC (E. faecalis ATCC51575)?
**A.** Its MIC is 0.03 µg/mL (≈ 0.0678 µM).

**Q.** What about the MIC (S. epidermidis MRSE15-2) of the same compound?
**A.** Its MIC is 0.015 µg/mL (≈ 0.0339 µM).

**Q.** And the IC50 (hERG channel)?
**A.** Its IC50 is greater than 30 µM.

**Q.** What about the spontaneous resistance frequency [8] of the same compound?
**A.** The spontaneous resistance frequency was < 4.3 × 10^–12.

**Q.** And the LD50 at 7 days ([9]; ip)?
**A.** The LD50 at 7 days was greater than 300 mg/kg.

**Q.** And the LD50 at 7 days ([9]; iv)?
**A.** Its LD50 at 7 days is greater than 100 mg/kg.

**Q.** And the LD50 at 7 days ([9]; po)?
**A.** Its LD50 at 7 days is greater than 800 mg/kg.

**Q.** And the MIC (A. baumannii ATCC19606)?
**A.** The MIC was 8 µg/mL (≈ 18.1 µM).

**Q.** And the MIC (S. aureus VISA5827)?
**A.** Its MIC is 0.015 µg/mL (≈ 0.0339 µM).

**Q.** And the spontaneous resistance frequency (S. aureus (ATCC29213) [10])?
**A.** Its spontaneous resistance frequency is “less than 8 × 10^–12”.

**Q.** And the MIC (S. aureus MRSA15-2)?
**A.** Its MIC is 0.015 µg/mL (≈ 0.0339 µM).

**Q.** And the Kd (S. aureus GyrB24)?
**A.** Its Kd is 0.052 µM.

**Q.** What about the MIC (S. aureus MSSA15-2) of the same compound?
**A.** Its MIC is 0.015 µg/mL (≈ 0.0339 µM).

**Q.** What about the IC50 (E. coli gyrase) of the same compound?
**A.** The IC50 was 1.48 ± 0.441 µM.

**Q.** And the IC50 at 48 h (Cytotoxicity assay [11])?
**A.** Its IC50 at 48 h is greater than 10 µM.

**Q.** And the MIC (S. aureus ATCC43300)?
**A.** The MIC was 0.015 µg/mL (≈ 0.0339 µM).

**Q.** What about the MIC (S. epidermidis MSSE15-3) of the same compound?
**A.** Its MIC is 0.015 µg/mL (≈ 0.0339 µM).

**Q.** And the MIC (E. faecium EFM19-1)?
**A.** Its MIC is 0.015 µg/mL (≈ 0.0339 µM).

**Q.** And the “mutagenic effects in Mini-Ames test” value [12]?
**A.** The value was “did not show any mutagenic effects”.
